{"source": "ChEMBL document CHEMBL3400129", "about": "“Novel hybrid nocodazole analogues as tubulin polymerization inhibitors and their antiproliferative activity” (Bioorg Med Chem Lett, 2015)", "key": {"A549": {"test_system": "A549", "test": "Cytotoxicity against human A549 cells", "type": "functional, cell-based"}, "Tubulin (Homo sapiens)": {"molecular_target": "Tubulin (Homo sapiens) (UniProt P68371+Q9H4B7+P0DPH7+P68366+Q13509+Q71U36+P04350+Q3ZCM7+P07437+P68363+Q9BQE3+Q6PEY2+Q13885+Q9BVA1+Q9BUF5)", "test": "Displacement of [3H]colchicine from tubulin (unknown origin) at 5 uM", "type": "protein-complex assay"}, "Tubulin": {"molecular_target": "Tubulin", "test": "Inhibition of tubulin polymerization (unknown origin)", "type": "protein-complex assay, Homo sapiens"}}, "data": [{"smiles": "COC(=O)Nc1nc2ccc(C(=O)c3ccc(OC)cc3O)cc2[nH]1", "values": [{"measurement": "IC50", "setting": "A549", "result": "> 100", "unit": "µM"}, {"measurement": "inhibition", "setting": "Tubulin (Homo sapiens)", "result": 38, "unit": "%"}, {"measurement": "IC50", "setting": "Tubulin", "result": 2.2, "unit": "µM"}]}, {"smiles": "COC(=O)Nc1nc2ccc(C(=O)c3ccc(O)cc3O)cc2[nH]1", "values": [{"measurement": "IC50", "setting": "A549", "result": "> 100", "unit": "µM"}, {"measurement": "IC50", "setting": "Tubulin", "result": "> 20", "unit": "µM"}]}, {"smiles": "COC(=O)Nc1nc2ccc(/C=C\\c3cc(OC)c(OC)c(OC)c3)cc2[nH]1", "values": [{"measurement": "IC50", "setting": "A549", "result": 12, "unit": "µM"}, {"measurement": "inhibition", "setting": "Tubulin (Homo sapiens)", "result": 39, "unit": "%"}, {"measurement": "IC50", "setting": "Tubulin", "result": 1.6, "unit": "µM"}]}, {"smiles": "COC(=O)Nc1nc2ccc(C(=O)c3sccc3O)cc2[nH]1", "values": [{"measurement": "IC50", "setting": "A549", "result": 6, "unit": "µM"}, {"measurement": "inhibition", "setting": "Tubulin (Homo sapiens)", "result": 56, "unit": "%"}, {"measurement": "IC50", "setting": "Tubulin", "result": 2, "unit": "µM"}]}]}
